Consider 17 molecules from patent EP2057185B1, “POLYMYXIN DERIVATIVES AND USES THEREOF” (Northern Antibiotics Oy, priority 2006, dated 2008).

Bridge positions count the residues as written; N and C are the ends. Square brackets hold non-standard residues; d marks the D form. Peptide text beside a SMILES is read from it. Dab = NCC[C@H](N)C(=O)O; Abu = CC[C@H](N)C(=O)O

Test [1] concerns E. coli IH3080. Kind of test: MIC by E-strips on Mueller-Hinton agar with or without NAB7061 (4 µg/ml). The test is classed as cell-based, Escherichia coli. Conditions: ratio of the MIC of the antibiotic in the absence of NAB 7061 to that in the presence of 4 µg/ml of NAB 7061; E. coli IH 3080. The method, then: (§1) MICs were determined by using E-strips (Biodisk Ltd., Solna, Sweden) according to the manufacturer's instructions.
(§2) The strains originated from ATCC (11 strains), CCUG (11 strains), and NCTC (The National Collection of Type Cultures, Colindale, U.K.; 2 strains). Eight strains (the F-strains) were purchased from Mobidiag Ltd., Helsinki, Finland.

In the next test the test system is E. coli ATCC25922. Described as above. The test is classed as cell-based, Escherichia coli. Conditions: ratio of the MIC of the antibiotic in the absence of NAB 7061 to that in the presence of 4 µg/ml of NAB 7061; E. coli ATCC 25922. The method, then: as §1, §2
The next test relates to E. cloacae ATCC23355. The description is as above. The test is classed as cell-based, Enterobacter cloacae. The settings on record: ratio of the MIC of the antibiotic in the absence of NAB 7061 to that in the presence of 4 µg/ml of NAB 7061; E. cloacae ATCC 23355. The method, then:
as §1, §2

Test [2] concerns E. coli (ATCC25922 and IH3080), K. pneumoniae ATCC13883, and E. cloacae ATCC23355. Kind of test: E-strip MIC, summary over the tested strains of Example 7. The test is classed as cell-based. Conditions: range over the tested strains; NAB7061 4 µg/ml. The protocol:
as §1

For the next test, the system named is K. pneumoniae ATCC13883. In words: MIC by E-strips on Mueller-Hinton agar with or without NAB7061 (4 µg/ml). The test is classed as cell-based, Klebsiella pneumoniae. Conditions: ratio of the MIC of the antibiotic in the absence of NAB 7061 to that in the presence of 4 µg/ml of NAB 7061; K. pneum. ATCC 13883. The protocol: as §1, §2
For test [3], the system named is E. coli IH3080. Kind of test: Growth inhibition around wells on LB agar plates. The test is classed as cell-based, Escherichia coli. Conditions: 18 h at 37°C; for Antibacterial activity at 4 µg: growth inhibition area around a well containing 4 µg of compound; for Antibacterial activity at 10 µg: growth inhibition area around a well containing 10 µg of compound. The method, then:
Peptides synthesized in Example 1, all carrying at least two (2) but not more than three (3) positive charges, were studied for their ability to inhibit the growth of E. coli. This was tested employing LB agar (LB Agar Lennox, Difco, BD, Sparks, MD, U.S.A) plates. The indicator organism E. coli IH3080 (K1:O18) was an encapsulated strain originally isolated from a neonate suffering from meningitis (Vaara et al. 1984) and obtained from National Public Health Institute, Helsinki, Finland.
(§3) From an overnight-grown culture of IH3080 on LB agar, a suspension of approx. 10^8 cells/ml was prepared in 0.9% NaCl. Aliquots of this suspension were then pipetted on the agar plates and the plates were gently shaken to spread the suspension evenly on the entire surface of the plate. Thereafter, the unabsorbed part of the suspension was removed by using a Pasteur pipette. After the surface had dried, small wells (diameter, 2 mm) were drilled on the plates (five wells per plate) by using a sterile sharp-edged narrow metal tube, single-use pipette tip, and vacuum suction. […] Controls included 0.9% NaCl solution without the compound to be tested. The plates were then incubated for 18 h at 37°C whereafter the diameters of growth inhibition zones around each well were measured; the diameter of the well itself was […]. Finally, the diameters were converted to surface areas of growth inhibition (in square mm).

In test [4] the test system is E. coli IH3080. In words: Growth inhibition around wells on LB plates containing rifampin (sensitization). The test is classed as cell-based, Escherichia coli. Conditions: well containing 4 µg of compound; for Antibacterial activity in the presence of rifampin concn (µg/ml) of 0: plates with no rifampin; for Antibacterial activity in the presence of rifampin concn (µg/ml) of 0.1: rifampin 0.1 µg/ml; for Antibacterial activity in the presence of rifampin concn (µg/ml) of 1.0: rifampin 1.0 µg/ml. The method, then: as §3, with “mm). […] Louis, MO, U.S.A).” for “mm).”

For `CC[C@H]1OC(=O)[C@H](C)[C@@H](O[C@H]2C[C@@](C)(OC)[C@@H](O)[C@H](C)O2)[C@H](C)[C@@H](O[C@@H]2O[C@H](C)C[C@H](N(C)C)[C@H]2O)[C@](C)(O)C[C@@H](C)CN(C)[C@H](C)[C@@H](O)[C@]1(C)O` [Azithromycin, azithromycin], the Sensitization factor is 31 - 94 in the test with E. coli IH3080 [1]; 24 - 64 in the test on E. coli ATCC25922; 32 with E. cloacae ATCC23355; 31-94 in test [2]; 31 - 43 in the test with K. pneumoniae ATCC13883.
In the same order, the values of `CC[C@H]1OC(=O)[C@H](C)[C@@H](O[C@H]2C[C@@](C)(OC)[C@@H](O)[C@H](C)O2)[C@H](C)[C@@H](O[C@@H]2O[C@H](C)C[C@H](N(C)C)[C@H]2O)[C@](C)(O)C[C@@H](C)C(=O)[C@H](C)[C@@H](O)[C@]1(C)O` [Erythromycin, erythromycin] are 32 - 42, 32 - 48, 21 - 43, 21-48 and 24 - 48.
As for `CC(=O)O[C@H]1C[C@@]2(C)[C@@H](C[C@@H](O)[C@H]3[C@@]4(C)CC[C@@H](O)[C@@H](C)[C@@H]4CC[C@@]32C)/C1=C(\CCC=C(C)C)C(=O)O` [Fusidic acid, fusidic acid], the Sensitization factor in the test on E. coli IH3080 [1] was more than 43; in the test with E. coli ATCC25922, more than 43; in the test with E. cloacae ATCC23355, more than 8; in the test on K. pneumoniae ATCC13883, more than 4.
Take `CC(=O)NC[C@H]1CN(c2ccc(N3CCOCC3)c(F)c2)C(=O)O1` [Linezolid, linezolid]: the Sensitization factor in the test on E. coli IH3080 [1] is more than 8; in the test on E. coli ATCC25922, more than 11; in the test on E. cloacae ATCC23355 it was more than 8; in the test with K. pneumoniae ATCC13883, more than 4.
With `C/C(=C\C(=O)OCCCCCCCCC(=O)O)C[C@@H]1OC[C@H](C[C@@H]2O[C@H]2[C@@H](C)[C@H](C)O)[C@@H](O)[C@H]1O` [Mupirocin, mupirocin], the Sensitization factor is reported as 64 - 85 in the test with E. coli IH3080 [1]; 64 - 170 in the test with E. coli ATCC25922; 250 - 512 with E. cloacae ATCC23355; 24-512 in test [2]; 24 - 32 with K. pneumoniae ATCC13883.
With `CC[C@@H]1NC(=O)[C@H](CC(C)C)NC(=O)[C@@H](Cc2ccccc2)NC(=O)[C@H](CCN)NC(=O)[C@@H](NC(=O)[C@H](CCN)NC(=O)[C@@H](N)[C@@H](C)O)CCNC(=O)[C@H]([C@@H](C)O)NC(=O)[C@H](CC)NC1=O` [NAB 701] (H-T[Dab][Dab][Dab][dF]L[Abu][Abu]T; lactam 3-C), in the test with E. coli IH3080 [3], the “Antibacterial activity at 4 µg” value is given as 0 square millimeters and the “Antibacterial activity at 10 µg” value is 0 square millimeters. In the test on E. coli IH3080 [4], the “Antibacterial activity in the presence of rifampin concn (µg/ml) of 0” value is 0 square millimeters, the “Antibacterial activity in the presence of rifampin concn (µg/ml) of 0.1” value (“Antibacterial activity in the presence … of 0.1” for short) worked out at 0 square millimeters and the “Antibacterial activity in the presence of rifampin concn (µg/ml) of 1.0” value (“Antibacterial activity in the presence … of 1.0” below) stood at 0 square millimeters.
In the case of `CC[C@H](NC(=O)[C@@H](N)[C@@H](C)O)C(=O)N[C@H]1CCNC(=O)[C@H]([C@@H](C)O)NC(=O)[C@H](CCN)NC(=O)[C@H](CCN)NC(=O)[C@H](CC(C)C)NC(=O)[C@@H](Cc2ccccc2)NC(=O)[C@H](CCN)NC1=O` [NAB 704] (H-T[Abu][Dab][Dab][dF]L[Dab][Dab]T; lactam 3-C), in the test with E. coli IH3080 [3], the “Antibacterial activity at 4 µg” value was 0 square millimeters and the “Antibacterial activity at 10 µg” value turned out to be 0 square millimeters. In the test on E. coli IH3080 [4], the “Antibacterial activity in the presence of rifampin concn (µg/ml) of 0” value stood at 0 square millimeters, the “Antibacterial activity in the presence … of 0.1” value is reported as 0 square millimeters and the “Antibacterial activity in the presence … of 1.0” value worked out at 24 square millimeters.
Turning to `CC[C@H](NC(=O)[C@@H](NC(=O)[C@@H](N)CC)[C@@H](C)O)C(=O)N[C@H]1CCNC(=O)[C@H]([C@@H](C)O)NC(=O)[C@H](CCN)NC(=O)[C@H](CCN)NC(=O)[C@H](CC(C)C)NC(=O)[C@@H](Cc2ccccc2)NC(=O)[C@H](CCN)NC1=O` [NAB 705] (H-[Abu]T[Abu][Dab][Dab][dF]L[Dab][Dab]T; lactam 4-C), in the test on E. coli IH3080 [3], the “Antibacterial activity at 4 µg” value was found to be 0 square millimeters and the “Antibacterial activity at 10 µg” value was determined as 0 square millimeters. Further, in the test with E. coli IH3080 [4], the “Antibacterial activity in the presence of rifampin concn (µg/ml) of 0” value is recorded as 0 square millimeters, the “Antibacterial activity in the presence … of 0.1” value is recorded as 0 square millimeters and the “Antibacterial activity in the presence … of 1.0” value stood at 5 square millimeters.
With `CO[C@H]1/C=C/O[C@@]2(C)Oc3c(C)c(O)c4c(O)c(c(/C=N/N5CCN(C)CC5)c(O)c4c3C2=O)NC(=O)/C(C)=C\C=C\[C@H](C)[C@H](O)[C@@H](C)[C@@H](O)[C@@H](C)[C@H](OC(C)=O)[C@@H]1C` [Rifampin, rifampin], the Sensitization factor with E. coli IH3080 [1] is on record as 170 - 350; in the test with E. coli ATCC25922 it was 250 - 750; in the test on E. cloacae ATCC23355 it was 750 - 1500; in the test with K. pneumoniae ATCC13883 it was 250 - 500.
With `COc1cc(Cc2cnc(N)nc2N)cc(OC)c1OC` [Trimetoprim], the Sensitization factor turned out to be 3 in the test on E. coli IH3080 [1], 3 with E. cloacae ATCC23355 and 2 with K. pneumoniae ATCC13883.
Regarding `CN[C@H](CC(C)C)C(=O)N[C@H]1C(=O)N[C@@H](CC(N)=O)C(=O)N[C@H]2C(=O)N[C@H]3C(=O)N[C@H](C(=O)N[C@H](C(=O)O)c4cc(O)cc(O)c4-c4cc3ccc4O)[C@H](O)c3ccc(c(Cl)c3)Oc3cc2cc(c3O[C@@H]2O[C@H](CO)[C@@H](O)[C@H](O)[C@H]2O[C@H]2C[C@](C)(N)[C@H](O)[C@H](C)O2)Oc2ccc(cc2Cl)[C@H]1O` [Vancomycin, vancomycin], the Sensitization factor in the test with E. coli IH3080 [1] was determined as 2.5; in the test on E. coli ATCC25922, 5; in the test with E. cloacae ATCC23355, 32; with K. pneumoniae ATCC13883 it was 1.
`CO/N=C(\C(=O)N[C@@H]1C(=O)N2C(C(=O)O)=C(COC(C)=O)CS[C@H]12)c1csc(N)n1` [cefotaxime]: in the test with E. coli ATCC25922, the Sensitization factor is less than 2.
The same measure, in the same setting: under `CC(C)(O/N=C(\C(=O)N[C@@H]1C(=O)N2C(C(=O)[O-])=C(C[n+]3ccccc3)CS[C@H]12)c1csc(N)n1)C(=O)O` [ceftazidime] stands less than 2; under `C[C@H]1COc2c(N3CCN(C)CC3)c(F)cc3c(=O)c(C(=O)O)cn1c23` [levofloxacin], less than 2.
The same measure, in the same setting: for `CCN1CCN(C(=O)N[C@@H](C(=O)N[C@@H]2C(=O)N3[C@@H]2SC(C)(C)[C@@H]3C(=O)O)c2ccccc2)C(=O)C1=O` [piperacillin] the value was less than 2; for `NC[C@H]1O[C@H](O[C@H]2[C@H](O)[C@@H](O[C@H]3O[C@H](CO)[C@@H](O)[C@H](N)[C@H]3O)[C@H](N)C[C@@H]2N)[C@H](N)C[C@@H]1O` [tobramycin], less than 2.
In the case of “quinupristin-dalfopristin [Quinupristin-dalfopr.]”, the Sensitization factor in the test with E. coli IH3080 [1] is more than 21; in the test on E. coli ATCC25922, more than 21; in the test with E. cloacae ATCC23355, more than 5; in the test with K. pneumoniae ATCC13883, 1.
